# Test results as given in US9562085B2, “Antimicrobial peptide” (priority 2013, dated 2017).
# Tests used:
# MRSA LUH14616 [1] = assay: In vitro killing assay on mid-log phase bacteria, MRSA LUH14616; format: cell-based, Staphylococcus aureus; details: for killing of MRSA LUH14616, in words: comparison among peptides tested, FIGS. 2-3
# Excerpt: (§1) The clinical isolate of methicillin-resistant Staphylococcus aureus (MRSA), LUH14616 was kindly provided by Dr. S. Croes, Maastricht University Medical Center, Maastricht, Netherlands (see S.B.M.C. Croes, Microbiol. 2009; 9:229. doi: 10.1186/1471-2180-9-229) and that of mupirocine-resistant MRSA LUH15051 was a gift from Dr. M.E.O.C. Heck (Laboratory for Infectious Diseases and Screening, National Institute for Public Health and Environment, RIVM, Bilthoven, Netherlands).
# (§2) Bacteria were stored at -80° C. until use. Inoculi of mid-log phase bacteria were prepared by incubating isolated MRSA colonies from blood agar plates in Tryptic Soy Broth (TSB) medium (Becton Dickinson, Le Pont de Clax, France) for 2.5 hours and then diluted to the concentration needed.
# (§3) For the in vitro killing assay on mid-log phase bacteria, MRSA LUH14616 and MRSA LUH15051 were resuspended to a concentration of 1×10^6 bacteria/ml in PBS. Subsequently, 200 μl was added to a concentration range of peptides LL-37, P60.4Ac (OP-145) and P10 that were lyophilized in advance. Subsequently, the bacteria-peptide mixture was incubated for 1 hour at 37° C. To establish the killing capacity of these peptides, the suspensions were serially diluted and plated onto DST agar plates to measure viable CFU counts. IC90, IC99 and IC99.9 values are calculated by linear regression analysis.
# MRSA LUH15051 [2] = assay: In vitro killing assay on mid-log phase bacteria, mupirocine-resistant MRSA LUH15051; format: cell-based, Staphylococcus aureus; details: compared with LL-37 and P60.4Ac
# Excerpt: as §1, §2, §3
# S. aureus JAR = format: cell-based; details: JAR, 2 h
# Protocol: S. aureus JAR is described in Campoccia et al. (Int. J. Artif. Organs, 2008 September; 31(9):841-7).
# For the in vitro killing assay with P10 variants, S. aureus JAR ([…] CFU/ml) were incubated for 2 hours at 37° C. with various concentrations of the peptides in PBS or in PBS/human plasma (1/1, v/v). […] The LC99.9 is the average value of two independent experiments.
# MRSA LUH14616 [3] = assay: Burn wound infection model, thermally wounded human skin equivalents, MRSA LUH14616; format: cell-based, Staphylococcus aureus; details: compared with LL-37 and P60.4Ac, FIG. 4
# Protocol: (§4) Human skin equivalents were prepared as described in El Ghalbzouri et al. (Lab. Invest. 2004 January; 84(1):102-12). In brief, 5×10^5 normal human keratinocytes were seeded onto fibroblast-populated rat-tail collagen matrices. The collagen matrices were prepared in advance by making a basal (0.1% acetic acid, 4 mg/ml collagen, Hank's Balanced Salt Solution (HBSS, 10×), 1 M NaOH and FCS) and a top collagen layer in which normal human fibroblasts were seeded (4 mg/ml collagen, 10×HBSS, 1 M NaOH, FCS and fibroblasts). Transwell filters with 3 μm pore size (Corning 3414, Costar) were used to culture the human skin equivalents. The collagen matrices were cultured in fibroblast medium for a week. The full thickness human skin equivalents were first cultured submerged in keratinocyte medium for 2 or 3 days at 37° C. and 7.3% CO2 and were then cultured in keratinocyte medium as described above, but with 1% FCS and supplemented with […] L-serine, 10 mM L-carnitine, 1 μM DL-α-tocopherol-acetate, 50 μM ascorbic acid, a lipid supplement that contained palmitic acid, linoleic acid and arachidonic acid in a 1:1:1 ratio and 2.4×10^−5 M bovine serum albumin. […]
# MRSA LUH15051 [4] = assay: Burn wound infection model, thermally wounded human skin equivalents, mupirocin-resistant MRSA LUH15051; format: cell-based, Staphylococcus aureus; details: compared with LL-37 and P60.4Ac, FIG. 5
# Protocol: as §4
# [5] = tested on: Staphylococcus epidermidis; assay: Activity against Staphylococcus epidermidis; format: cell-based
# [6] = tested on: (drug-resistant) Pseudomonas aeruginosa strains; assay: Activity against Pseudomonas aeruginosa; format: cell-based; details: various (drug-resistant) strains
# [7] = tested on: (drug-resistant) Acinetobacter baumannii strains; assay: Activity against Acinetobacter baumannii; format: cell-based
# mycobacteria = assay: Activity against mycobacteria; format: cell-based
# [8] = tested on: (fluconazole-resistant) Candida albicans; assay: Activity against Candida albicans; format: cell-based
# Aspergillus niger = assay: Activity against Aspergillus niger; format: cell-based
# [9] = tested on: methicillin-resistant S. aureus biofilm; assay: Prevention of MRSA biofilm formation; format: cell-based; details: on plastic as well as biotic (wounded 3-D human skin model) surfaces
# [10] = tested on: lipoteichoic acid (LTA), peptidoglycan (PG) and lipopolysaccharides (LPS); assay: Endotoxin neutralization
# Excerpt: The term “anti-inflammatory activity” of a polypeptide as used herein refers to inhibiting, reducing or preventing an inflammatory response in a subject that has been infected by microbes, e.g., bacteria, viruses, fungi, and/or parasites. Anti-inflammatory activity of polypeptides of the disclosure is achieved by inhibiting, reducing or preventing the release of pro-inflammatory microbial compounds, such as lipoteichoic acid (LTA), peptidoglycan (PG) and/or lipopolysaccharides (LPS). Anti-inflammatory activity can be measured by methods known in the art. One example of such method is a lipopolysaccharide neutralization assay. In this method, a polypeptide of the disclosure is mixed with 1 mg of lipopolysaccharides and incubated for 60 minutes. Thereafter, these mixtures were added to 4 times diluted fresh human blood and 18 hours thereafter, the level of cytokines (1L-8, 1L-12p40) in the blood sample are measured by ELISA.
substance,measurement,setting,value
"Ac-IGKEFKRIVERIKRFLRELVRPLR-NH2 (N-terminus and C-terminus assumed) [Peptide P60.4Ac, reference compound]",IC90,"MRSA LUH14616 [1]; MRSA LUH14616 in PBS, 1 hour at 37° C., 90% Inhibitory Concentration, linear regression",750 nM
Ac-LAREYKKIVEKLKRWLRQVLRTLR-NH2 (N-terminus and C-terminus assumed) [Peptide P10],activity compared with P60.4Ac,"MRSA LUH14616 [1]; MRSA LUH14616, surviving bacteria at similar concentration",approximately 100 times
same,IC99.9,"MRSA LUH14616 [1]; MRSA LUH14616 in PBS, 1 hour at 37° C., 99.9% Inhibitory Concentration, linear regression",0.59 µM
same,"effectiveness against MRSA bacteria in log phase, stationary bacteria and bacteria residing in biofilms","MRSA LUH14616 [1]; MRSA, strain not stated",highly effective
same,"killing of MRSA LUH14616, in words",MRSA LUH14616 [1],highest activity
same,"killing of MRSA LUH14616, in words",MRSA LUH14616 [1]; listed as Peptide 10,more effective than LL-37 and P60.4Ac
same,"killing of mupirocine-resistant MRSA, in words",MRSA LUH15051 [2],more effective than LL-37 and P60.4Ac
same,LC99.9 (μM) (50% plasma),S. aureus JAR,102.4 µM
same,LC99.9 (μM) (PBS),S. aureus JAR,1.6 µM
same,"eliminating MRSA from thermally wounded human skin equivalents, in words",MRSA LUH14616 [3],more effective than LL-37 and P60.4Ac
same,"eliminating mupirocine-resistant MRSA from thermally wounded human skin equivalents, in words",MRSA LUH15051 [4],more effective than LL-37 and P60.4Ac
same,effectiveness against Staphylococcus epidermidis,[5],highly effective
same,effectiveness against Pseudomonas aeruginosa,[6],highly effective
same,effectiveness against Acinetobacter baumannii,[7],highly effective
same,effectiveness against mycobacteria,mycobacteria,highly effective
same,effectiveness against Candida albicans,[8],highly effective
same,effectiveness against Aspergillus niger,Aspergillus niger,highly effective
same,prevention of MRSA biofilm formation,[9],able to prevent
same,"neutralization of endotoxin LTA, PG and LPS",[10],neutralizes
"Ac-VAREYKKIVEKLKRWLRQVLRTLR-NH2 [Peptide 1302-18, JVAREYKKIVEKLKRWLRQVLRTLRB]",LC99.9 (μM) (50% plasma),S. aureus JAR,76.8 µM
same,LC99.9 (μM) (PBS),S. aureus JAR,1.6 µM
"Ac-YKKIVEKLKRWLRQVL-NH2 [Peptide 1302-62, JYKKIVEKLKRWLRQVLB]",LC99.9 (μM) (50% plasma),S. aureus JAR,76.8 µM
same,LC99.9 (μM) (PBS),S. aureus JAR,1.6 µM
"Ac-YKKIVEKLKRWLRQVLRTLR-NH2 [Peptide 1302-59, JYKKIVEKLKRWLRQVLRTLRB]",LC99.9 (μM) (50% plasma),S. aureus JAR,51.2 µM
same,LC99.9 (μM) (PBS),S. aureus JAR,1.6 µM
